In brackets after ≈: the same amount, converted by molar mass. Where two headings read alike, the source gives them in different places. Where only a bound is given, the exact number is not on record here.

The text below walks through data of paper doi:10.1101/466938v1, “The distinct biochemical property enables thymidylate kinase as a drug target and participates in pyrimidine drug sensitivity in Candida albicans” (biorxiv, 2018).

Test in all cases: microbe, parasite or virus in culture
Holding throughout (design): species or system Candida albicans strains; Sensititre YeastOne SYO-09 colorimetric microdilution, visual MIC at >=50% growth inhibition

The subject of assay [1] is T1, Candida albicans ATCC90028.
T1 construct: ATCC 90028
Particulars: ATCC90028, 24 h. Here is the method:
(§1) Minimum inhibitory concentrations (MICs) of 5-FUrd were determined by broth microdilution method in accordance with the guidelines in Clinical and Laboratory Standards Institute (CLSI) document M27[25], using RPMI 1640 medium containing 0.165 M MOPs (pH 7.0) and 0.2% glucose, an inoculum of 10^3 cells/well, and incubated for 24 hr at 35°C, followed by OD600 reading by TECAN SPARK plate reader. The MIC50 of 5-FUrd was determined as the lowest dosage of 5-FUrd causing 50% inhibition of the growth by using the concentrations in the range of 0.004-2μg/mL. MICs of […] of human use (5-FC; four azoles: posaconazole, voriconazole, itraconazole, fluconazole; and three echinocandins: anidulafungin, caspofungin and micafungin) were determined by the microdilution colorimetric Sensititre YeastOne SYO-09 panel (TREK Diagnostic Systems, Cleveland, OH, USA); in accordance with the manufacturer’s instructions. MICs values were determined visually, after 24 hours of incubation, as the lowest concentration of drug that caused complete inhibition (amphotericin B) or a significant diminution (≥50% inhibition; flucytosine, azoles and echinocandins) of growth relative to that of the growth control. Table 2. Minimum inhibitory concentrations of 5-FUrd and antifungal drugs of clinical used for pathogenic and drug-resistant isolates of Candida albicans^a

Assay [2] has as its system T2, Candida albicans F2014a093.
T2 construct: F2014a093
Particulars: F2014A093, 24 h. Here is the method:
as §1

The subject of assay [3] is T3, Candida albicans F2014f090.
T3 construct: F2014f090
The conditions noted are these: F2014F090, 24 h. Here is the method: as §1

Assay [4] deals with T4, Candida albicans F2015b076.
T4 construct: F2015b076
Particulars: F2015B076, 24 h. Here is the method:
as §1

Assay [5] relates to T5, Candida albicans F2015f019.
T5 construct: F2015f019
The conditions noted are these: F2015F019, 24 h. Here is the method: as §1

Assay [6] relates to T6, Candida albicans F2016a067.
T6 construct: F2016a067
Particulars: F2016A067, 24 h. Here is the method: as §1

For assay [7], the system named is T7, Candida albicans F2016c087.
T7 construct: F2016c087
The conditions noted are these: F2016C087, 24 h. The procedure:
as §1

For assay [8], the system named is T8, Candida albicans F2016e085.
T8 construct: F2016e085
Particulars: F2016E085, 24 h. The procedure: as §1

The subject of assay [9] is T9, Candida albicans F2016f024.
T9 construct: F2016f024
The conditions noted are these: F2016F024, 24 h. Here is the method: as §1

Assay [10] has as its system T10, Candida albicans F2016g048.
T10 construct: F2016g048
Particulars: F2016G048, 24 h. Here is the method: as §1

Assay [11] has as its system T11, Candida albicans F2017g023.
T11 construct: F2017g023
Particulars: F2017G023, 24 h. Here is the method:
as §1

The subject of another assay is T12, Candida albicans SC5314.
T12 construct: SC5314
Particulars: SC5314, 24 h. The procedure: as §1

[12] abbreviates: read-out: Voriconazole MIC (µg/mL).
Setting [13] is: read-out: Itraconazole MIC (µg/mL).
Setting [14] is: read-out: Fluconazole MIC (µg/mL).
The mark [15] stands for this setting: read-out: Posaconazole MIC (µg/mL).

Consider `C[C@@H](c1ncncc1F)[C@](O)(Cn1cncn1)c1ccc(F)cc1F` [Voriconazole, voriconazole], for which the MIC in assay [1] (setting [12]) was 0.015 µg/mL (≈ 0.0429 µM); in assay [2] (setting [12]), over 8 µg/mL; in assay [3] (setting [12]), 0.25 µg/mL (≈ 0.716 µM); in assay [4] (setting [12]), over 8 µg/mL; in [5] (setting [12]) it was 0.06 µg/mL (≈ 0.172 µM); in [6] (setting [12]), 0.03 µg/mL (≈ 0.0859 µM). In addition, the MIC in [7] (setting [12]) was 0.015 µg/mL (≈ 0.0429 µM); in assay [8] (setting [12]) it was 0.004 µg/mL (≈ 0.0115 µM); in assay [9] (setting [12]), 0.5 µg/mL (≈ 1.43 µM); in [10] (setting [12]) it was over 8 µg/mL; in [11] (setting [12]), 0.004 µg/mL (≈ 0.0115 µM); in the assay on Candida albicans SC5314 (setting [12]), 0.015 µg/mL (≈ 0.0429 µM).

For the compound `CCC(C)n1ncn(-c2ccc(N3CCN(c4ccc(OC[C@H]5CO[C@](Cn6cncn6)(c6ccc(Cl)cc6Cl)O5)cc4)CC3)cc2)c1=O` (mixture of isomers) [Itraconazole, itraconazole], the MIC is 0.06 µg/mL in assay [1] (setting [13]); over 16 µg/mL in assay [2] (setting [13]); over 16 µg/mL in assay [3] (setting [13]); 0.5 µg/mL in [4] (setting [13]); 0.12 µg/mL in assay [5] (setting [13]); over 16 µg/mL in [6] (setting [13]). Also, the MIC was determined as 0.12 µg/mL in assay [7] (setting [13]); 0.03 µg/mL in assay [8] (setting [13]); 0.12 µg/mL in [9] (setting [13]); 1 µg/mL in assay [10] (setting [13]); 0.06 µg/mL in assay [11] (setting [13]); 0.06 µg/mL with Candida albicans SC5314 (setting [13]).

Take `Nc1[nH]c(=O)ncc1F` [5-FC, 5-flucytosine]: the MIC in assay [1] (read-out: 5-FC MIC (µg/mL)) was 0.5 µg/mL (≈ 3.87 µM); in assay [2] (read-out: 5-FC MIC (µg/mL)), 0.03 µg/mL (≈ 0.232 µM); in assay [3] (read-out: 5-FC MIC (µg/mL)), 0.12 µg/mL (≈ 0.93 µM); in [4] (read-out: 5-FC MIC (µg/mL)) it was 0.03 µg/mL (≈ 0.232 µM); in [5] (read-out: 5-FC MIC (µg/mL)), 0.03 µg/mL (≈ 0.232 µM); in assay [6] (read-out: 5-FC MIC (µg/mL)) it was 0.03 µg/mL (≈ 0.232 µM). Further, the MIC was over 64 µg/mL in assay [7] (read-out: 5-FC MIC (µg/mL)); 8 µg/mL (≈ 62 µM) in [8] (read-out: 5-FC MIC (µg/mL)); 0.03 µg/mL (≈ 0.232 µM) in assay [9] (read-out: 5-FC MIC (µg/mL)); 0.03 µg/mL (≈ 0.232 µM) in [10] (read-out: 5-FC MIC (µg/mL)); over 64 µg/mL in assay [11] (read-out: 5-FC MIC (µg/mL)); 0.06 µg/mL (≈ 0.465 µM) with Candida albicans SC5314 (read-out: 5-FC MIC (µg/mL)).

Consider `OC(Cn1cncn1)(Cn1cncn1)c1ccc(F)cc1F` [Fluconazole, fluconazole], for which the MIC is 1 µg/mL (≈ 3.27 µM) in [1] (setting [14]); over 256 µg/mL in assay [2] (setting [14]); 2 µg/mL (≈ 6.53 µM) in assay [3] (setting [14]); 256 µg/mL (≈ 836 µM) in assay [4] (setting [14]); 4 µg/mL (≈ 13.1 µM) in [5] (setting [14]); 64 µg/mL (≈ 209 µM) in assay [6] (setting [14]). Moreover, the MIC amounted to 0.5 µg/mL (≈ 1.63 µM) in assay [7] (setting [14]); 0.06 µg/mL (≈ 0.196 µM) in [8] (setting [14]); 8 µg/mL (≈ 26.1 µM) in [9] (setting [14]); 256 µg/mL (≈ 836 µM) in assay [10] (setting [14]); 0.5 µg/mL (≈ 1.63 µM) in assay [11] (setting [14]); 0.5 µg/mL (≈ 1.63 µM) with Candida albicans SC5314 (setting [14]).

Take `CC[C@@H]([C@H](C)O)n1ncn(-c2ccc(N3CCN(c4ccc(OC[C@@H]5CO[C@@](Cn6cncn6)(c6ccc(F)cc6F)C5)cc4)CC3)cc2)c1=O` [Posaconazole, posaconazole]: the MIC was 0.06 µg/mL (≈ 0.0856 µM) in [1] (setting [15]); over 8 µg/mL in [2] (setting [15]); over 8 µg/mL in [3] (setting [15]); 1 µg/mL (≈ 1.43 µM) in assay [4] (setting [15]); 0.12 µg/mL (≈ 0.171 µM) in [5] (setting [15]); 0.03 µg/mL (≈ 0.0428 µM) in [6] (setting [15]). For the same compound, the MIC in [7] (setting [15]) was 0.06 µg/mL (≈ 0.0856 µM); in [8] (setting [15]) it was 0.015 µg/mL (≈ 0.0214 µM); in assay [9] (setting [15]) it was 0.25 µg/mL (≈ 0.357 µM); in assay [10] (setting [15]), 1 µg/mL (≈ 1.43 µM); in assay [11] (setting [15]) it was 0.03 µg/mL (≈ 0.0428 µM); with Candida albicans SC5314 (setting [15]), 0.015 µg/mL (≈ 0.0214 µM).
